Literature values in US20210346453A1, “COMPOSITIONS AND METHODS FOR TREATMENT OF COVID-19” (Cognitive Clarity Inc., priority 2020, published 2021).

Columns and labels:
[1] = test system: brain plaques and tangles; details: aging brain
[2] = test system: inflammation in brain (astrocytosis and microgliosis); details: plaque-producing transgenic mice, within 3 months of treatment
[3] = test system: COVID-19; details: compared to placebo

Row | Molecule | brain plaques and tangles [1] | reduction of inflammation in brain (astrocytosis and microgliosis) [2] | risk of being hospitalized or visiting the Emergency Room within 28 days after treatment [3]
1 | Oc1cc(O)c2c(c1)O[C@H](c1ccc(O)c(O)c1)[C@H](O)[C@H]2c1c(O)cc(O)c2c1O[C@H](c1ccc(O)c(O)c1)[C@H](O)[C@H]2c1c(O)cc(O)c2c1O[C@H](c1ccc(O)c(O)c1)[C@H](O)C2 [proanthocyanidin C1, epicatechin-4β-8-epicatechin-4β-8-epicatechin] | inhibit and reduce | – | –
2 | Oc1cc(O)c2c(c1)O[C@H](c1ccc(O)c(O)c1)[C@@H](O)[C@@H]2c1c(O)cc(O)c2c1O[C@H](c1ccc(O)c(O)c1)[C@H](O)C2 [proanthocyanidin B4, catechin-4-α-8-epicatechin] | inhibit and reduce | – | –
3 | Oc1cc(O)c2c(c1)O[C@H](c1ccc(O)c(O)c1)[C@H](O)[C@H]2c1c(O)cc(O)c2c1O[C@H](c1ccc(O)c(O)c1)[C@H](O)C2 [Proanthocyanidin B2, epicatechin-4β-8-epicatechin] | inhibit and reduce | 69%-80.3% | –
4 | Oc1ccc([C@H]2Oc3cc(O)cc(O)c3[C@H](c3c(O)cc(O)c4c3O[C@H](c3ccc(O)c(O)c3)[C@H](O)C4)[C@H]2O)cc1 [epiafzelechin-4β-8-epicatechin] | inhibit and reduce | – | –
5 | Bamlanivimab: monoclonal antibody treatment made by Eli Lilly | – | – | significantly reduce
